Our source for the Km values is paper PMC3301443 (Scientific Reports, 2012).

Molecules are shown by their SMILES.

Assay [1] has as its target T1, PadA (Escherichia coli, UniProt P80668).
T1 sequence (P80668 1-499): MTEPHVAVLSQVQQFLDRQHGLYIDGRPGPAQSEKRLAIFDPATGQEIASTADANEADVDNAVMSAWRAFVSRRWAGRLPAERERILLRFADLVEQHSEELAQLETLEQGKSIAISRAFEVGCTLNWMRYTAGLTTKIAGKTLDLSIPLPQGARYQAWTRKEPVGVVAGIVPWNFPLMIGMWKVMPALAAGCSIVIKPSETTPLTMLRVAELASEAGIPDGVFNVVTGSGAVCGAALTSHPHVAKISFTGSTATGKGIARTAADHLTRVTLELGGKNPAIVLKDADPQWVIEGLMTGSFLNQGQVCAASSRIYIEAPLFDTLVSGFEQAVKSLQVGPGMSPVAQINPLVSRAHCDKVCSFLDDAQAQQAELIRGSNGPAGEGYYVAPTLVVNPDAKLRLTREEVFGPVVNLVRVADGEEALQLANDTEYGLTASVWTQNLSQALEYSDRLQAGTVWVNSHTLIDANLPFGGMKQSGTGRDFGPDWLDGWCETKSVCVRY
The assay is described as follows: in vitro enzyme kinetics. The note with it: aldehyde oxidation. In kind it is biochemical.

The subject of assay [2] is KDHba. It is filed as biochemical, Burkholderia ambifaria. The conditions noted are these: aldehyde oxidation.

By Km is commonly meant the substrate concentration at which the rate is half of its maximum. For the compound `CC(C)CC=O` [isopentanal], the Km in assay [1] amounted to 1950 µM. For the compound `CC(C)CCC=O` [isohexanal], in assay [2], the Km turned out to be 520 µM.

Take `CC(C)C=O` [isobutanal]: the Km in assay [2] came to 34500 µM.
